Measurements as given in article PMC5756575, “In Vitro Biotransformation, Safety, and Chemopreventive Action of Novel 8-Methoxy-Purine-2,6-Dione Derivatives” (Applied Biochemistry and Biotechnology, 2017).
Entries after “also recorded” stand apart in the source; their conditions may differ. Read-outs that look alike come from different tables or passages of the source.

Legend:
[1] = system: Cunninghamella elegans 1906 DMS; experiment: Cunninghamella biotransformation assay, C. elegans; assay type: in vitro ADME; details: 0.5 mg/mL, 7-day incubation, LC-MS/MS
Method: (§1) Three different strains of Cunninghamella were used: Cunninghamella echinulata NRRL 1384, Cunninghamella blakesleeana 1908 DMS, and Cunninghamella elegans 1906 DMS. The first was provided by Dr. A.J. Carnell (University of Liverpool, UK), whereas the two remaining were purchased from Deutsche Sammlung von Mikroorganismen und Zellkulturen GmbH (DMSZ, Braunschweig, Germany).
(§2) Cunninghamella strains were cultivated on solid potato dextrose agar (PDA) plates at 28 °C. After 4 days, a liquid fermentation basal medium was prepared by the addition of 6 g of D-glucose, 1.5 g of NaCl, 1.5 g of yeast extract from Saccharomyces cerevisiae, and 1.5 g of K2HPO4 to 300 mL of distilled water. Aliquots of 24.5 mL of medium were inoculated with 300 μL of suspension of fungal spores obtained after wetting colonies in PDA. The fungi were incubated with shaking until the formation of spherical clumps.
(§3) Compounds 2–4 were evaluated in this experiment. Once microorganisms formed spherical clumps in the preliminary incubation, the corresponding tested compound was added to the broth and the mixture was incubated for 7 days. Two control experiments were also performed, in the absence of compound and fungus, respectively. Biotransformation progress was monitored by TLC and by liquid chromatography electrospray ionization-tandem mass spectrometry (LC-MS/MS). Monitoring was performed at four different incubation times: 30 min, 3 days, 5 days, and 7 days.
(§4) To analyze metabolites in LC-MS/MS, an aliquot of 500 μL of filtered sample was taken and extracted with 500 μL of dichloromethane. The organic fraction was dried with sodium sulfate, filtered, and evaporated. The obtained residue was analyzed in LC-MS/MS. At the end of experiment, all the remaining medium was extracted with 25 mL of dichloromethane after separating the fungal clumps by filtration over cellulose filters.
(§5) Agilent 1100 HPLC system (Agilent Technologies, Waldbronn, Germany) equipped with a Xbridge™ C18 analytical column (2.1 × 30 mm, […]; Waters, Dublin, Ireland) was used in the chromatographic separation of LC-MS/MS analysis. An elution gradient of acetonitrile and water, with 0.1% of formic acid, was used as a mobile phase. MS spectra were taken at Applied Biosystems MDS Sciex API 200 triple quadrupole mass analyzer (Concord, Ontario, Canada) with an electrospray ionization (ESI) interface between HPLC and MS.

[2] = system: Cunninghamella blakesleeana 1908 DMS; experiment: Cunninghamella biotransformation assay, C. blakesleeana; assay type: in vitro ADME; details: 0.5 mg/mL, 7-day incubation, LC-MS/MS
Method: as §1, §2, §3, §4, §5

[3] = system: Cunninghamella echinulata NRRL 1384; experiment: Cunninghamella biotransformation assay, C. echinulata; assay type: in vitro ADME; details: 0.5 mg/mL, 7-day incubation, LC-MS/MS
Method: as §1, §2, §3, §4, §5

[4] = system: rat liver microsomes; experiment: Microsomal stability assay; assay type: in vitro ADME; details: rat liver microsomes, 1 h of incubation
Method: Compounds 1 and 3 were studied in a biotransformation assay using rat liver microsomes following procedures described previously. The reagents used in this assay were levallorphan (internal standard) and NADPH-regenerating system, which contained phosphate buffer (pH 7.4), NADP^+, glucose-6-phosphate, and glucose-6-phosphate dehydrogenase. The final protein concentration in the assay was 0.4 mg/mL. Compounds 1 and 3 were tested at a final concentration of 20 μM.
The amount of a parental compound remaining in a solution after biotransformation was monitored using LC-MS/MS as described previously in “Cunninghamella Biotransformation Assay.” Graphs representing ln of percentage of parent compound remaining versus incubation time were drawn to calculate in vitro half-time (t1/2) from the slope of linear regression. To obtain intrinsic clearance (Clint) of a tested compound in rat liver microsomal assay, t1/2 previously calculated was substituted at the equation Clint = [(Vmic/Pmic) × 0.693/t1/2], being Vmic and Pmic the volume of incubation in microliters and the amount of incubated protein in milligrams, respectively.
as §5

[5] = system: Vibrio harveyi BB7M; details: 40 ng/mL; for MI (mutagenicity index): mutagenic if MI above 2.0; for Number of revertants per plate, Mean ± SD: mutagenicity
Method: (§6) From them, 0.2 mM working solutions were prepared by dilution with water. […] Working solutions were prepared by 1:100 dilution of stock solution in water, and final compound concentration assayed was 40 ng/mL.
(§7) Four Vibrio harveyi strains were used in this study: a wild-type BB7 (naturally found in the Baltic Sea) and three genetically modified strains, namely BB7M (obtained by the introduction of pAB1273 plasmid containing the genes mucA and mucB to enhance the error-prone DNA repair), BB7X (hypersensitive to UV radiation after genetic modification with Tn5TpMCS), and BB7XM (containing the two abovementioned modifications). These strains were kindly provided by Prof. G. Węgrzyn (Department of Molecular Biology, University of Gdańsk, Poland).
(§8) It causes point mutations at the genome as it induces G:C → A:T transitions in Vibrio harveyi strains and in other bacteria such as Escherichia coli and S. typhimurium. […] Next, its working solution was prepared in sterile water, being 40 ng/mL its final concentration.
(§9) To perform the V. harveyi mutagenicity test, 10 μL of a working solution of the tested compound (100 μg/mL) were added to V. harveyi bacterial culture (OD600 = 0.1) in NaCl-containing BOSS liquid medium, being 40 ng/mL the final concentration of the tested compound. […] Then, an inoculum containing 5 × 10^6 cells was added to solid BOSS agar plate supplemented with neomycin sulfate at a final concentration of 100 μg/mL. Samples were left incubating 48 h at 30 °C, and revertant colonies were counted manually.

[6] = system: Vibrio harveyi BB7X; details: 40 ng/mL; for MI (mutagenicity index): mutagenic if MI above 2.0; for Number of revertants per plate, Mean ± SD: mutagenicity
Method: as §6, §7, §8, §9

[7] = system: Vibrio harveyi BB7; details: BB7, 40 ng/mL; for MI (mutagenicity index): mutagenic if MI above 2.0; for Number of revertants per plate, Mean ± SD: mutagenicity
Method: as §6, §7, §8, §9

[8] = system: Vibrio harveyi BB7XM; experiment: Vibrio harveyi mutagenicity assay, BB7XM; assay type: cell-based; details: 40 ng/mL; for MI (mutagenicity index): mutagenic if MI above 2.0; for Number of revertants per plate, Mean ± SD: mutagenicity
Method: as §6, §7, §8, §9

[9] = system: Salmonella typhimurium TA100; experiment: Ames mutagenicity test; assay type: cell-based
Method: From them, 0.2 mM working solutions were prepared by dilution with water. […]
(§10) In the Ames test, Salmonella typhimurium TA100 strain was used. This strain has a base-pair substitution that can be reverted by mutations at GC pairs. In addition, it contains mutations at uvrB-bio and rfa genes to eliminate excision repair mechanisms and to make the bacteria more permeable to chemicals, respectively. Finally, TA100 also includes pKM101 plasmid, which enhances both chemical and UV-induced mutagenesis via an increase in the error-prone recombinational DNA repair pathway. TA100 strain of S. typhimurium was provided by Dr. T. Nohmi (Division of Genetics and Mutagenesis, National Institute of Hygienic Sciences, Tokyo, Japan). V. harveyi and S. typhimurium bacterial cultures were maintained at 30 and 37 °C, respectively.
It causes point mutations at the genome as it induces G:C → A:T transitions in Vibrio harveyi strains and in other bacteria such as Escherichia coli and S. typhimurium. […]
S. typhimurium was cultivated in a fresh medium 12 h prior to a test. To perform mutagenicity assay, 100 μL of an overnight culture (containing approx. 1 × 10^8 to 2 × 10^8 bacteria) were inoculated along with 50 μL of a tested compound in 2 mL of top agar supplemented with traces of histidine and of biotin. Then the mixture was added over the surface of GM agar plates and was left incubating 48 h at 37 °C. Afterwards, the colonies were counted manually.

[10] = system: Vibrio harveyi BB7; experiment: Vibrio harveyi antimutagenicity assay against NQNO, BB7; assay type: cell-based; details: for % inhibition of NQNO mutagenicity / Number of revertants per plate, Mean ± SD: BB7, compound 40 ng/mL + NQNO 40 ng/mL; for Number of revertants per plate, Mean ± SD: antimutagenicity, NQNO line = NQNO as a single compound; for chemopreventive (antimutagenic) effect, class: wild BB7 strain, against NQNO
From the text: as §7, §8
(§11) Procedure followed in the V. harveyi antimutagenicity assay was similar to the mutagenicity method described before. […] The results were expressed as the inhibition percentage of mutagenic effect, which was calculated with the formula: 100 − [(R 1/R 2) × 100], where R 1 is the number of revertants per plate in the presence of both mutagen and tested substance, and R 2 is the number of revertants per plate in the presence of mutagen. […] S. typhimurium antimutagenicity assay was based on similar assumptions as the V. harveyi antimutagenicity test. In this case, the chemopreventive activity was determined at two concentrations of a tested compounds and a standard mutagen, i.e., 40 and 500 ng/mL.

[11] = system: Vibrio harveyi BB7X; experiment: Vibrio harveyi antimutagenicity assay against NQNO, BB7X; assay type: cell-based; details: compound 40 ng/mL + NQNO 40 ng/mL; for Number of revertants per plate, Mean ± SD: antimutagenicity, NQNO line = NQNO as a single compound
From the text: as §7, §8, §11

[12] = system: Vibrio harveyi BB7M; experiment: Vibrio harveyi antimutagenicity assay against NQNO, BB7M; assay type: cell-based; details: compound 40 ng/mL + NQNO 40 ng/mL; for Number of revertants per plate, Mean ± SD: antimutagenicity, NQNO line = NQNO as a single compound
From the text: as §7, §8, §11

[13] = system: Vibrio harveyi BB7XM; assay type: cell-based; details: compound 40 ng/mL + NQNO 40 ng/mL; for Number of revertants per plate, Mean ± SD: antimutagenicity, NQNO line = NQNO as a single compound
From the text: as §7, §8, §11

[14] = system: Salmonella typhimurium TA100; experiment: S. typhimurium antimutagenicity assay against NQNO; assay type: cell-based; details: for Number of revertants per plate, Mean ± SD: antimutagenicity, NQNO line = NQNO as a single compound
From the text: as §10, §8, §11

[15] = system: Cunninghamella strains; experiment: Cunninghamella biotransformation assay, three strains together and blank without fungus; assay type: in vitro ADME; details: three strains, LC-MS/MS
Method: as §1, §2, §3, §4
Agilent 1100 HPLC system (Agilent Technologies, Waldbronn, Germany) equipped with a Xbridge™ C18 analytical column (2.1 × 30 mm, […]; Waters, Dublin, Ireland) was used in the chromatographic separation of LC-MS/MS analysis. […]

[16] = TA100, 40 ng/mL, mutagenic if MI >2.0
[17] = TA100, 500 ng/mL (NQNO control stated as 40 ng/mL in method)
[18] = TA100, compound and NQNO 40 ng/mL
[19] = TA100, compound and NQNO 500 ng/mL

Structure (SMILES)	% of compound/metabolite in C. elegans [1]	% of compound/metabolite in C. blakesleeana [2]	% of compound/metabolite in C. echinulata [3]	MI (mutagenicity index) [5]	Number of revertants per plate, Mean ± SD [5]	MI (mutagenicity index) [6]	Number of revertants per plate, Mean ± SD [6]	MI (mutagenicity index) [7]	Number of revertants per plate, Mean ± SD [7]	MI (mutagenicity index) [8]	Number of revertants per plate, Mean ± SD [8]	Number of revertants per plate, Mean ± SD ([9]; TA100, 40 ng/mL)	MI (mutagenicity index) [9, 16]	MI (mutagenicity index) [9, 17]	Number of revertants per plate, Mean ± SD [9, 17]	% inhibition of NQNO mutagenicity [10]	Number of revertants per plate, Mean ± SD [10]	chemopreventive (antimutagenic) effect, class [10]	Number of revertants per plate, Mean ± SD [11]	% inhibition of NQNO mutagenicity [11]	also measured
COc1nc2c(c(=O)n(C)c(=O)n2C)n1CCCC(=O)NCc1ccc(O)cc1 [3-M4]	– – – 0.6%	– – – 4.6%	4.2%																		
COc1nc2c(c(=O)n(C)c(=O)n2C)n1CCCC(=O)N1CCN(c2ccc(O)cc2)CC1 [4-M1]	53.0%	66.6%	87.6%																		
COc1nc2c(c(=O)n(C)c(=O)n2C)n1CC(=O)O [Compound 1, 2-(8-methoxy-1,3-dimethyl-2,6-dioxo-purin-7-yl)acetic acid]				1.2	33 ± 8	1.4	30 ± 1	0.9	12 ± 2	1.1	37 ± 11	12 ± 5	0.3	0.6	16 ± 3	20%	44 ± 6	moderate or a close to moderate	28 ± 7	74%	metabolic stability in microsomal biotransformation (in words) [4]: metabolically stable; Number of revertants per plate, Mean ± SD [12]: 60 ± 10; % inhibition of NQNO mutagenicity [12]: 39%; Number of revertants per plate, Mean ± SD [13]: 69 ± 10; % inhibition of NQNO mutagenicity [13]: 10%; % inhibition of NQNO mutagenicity [14, 18]: 88%; % inhibition of NQNO mutagenicity [14, 19]: 95%; Number of revertants per plate, Mean ± SD [14, 18]: 10 ± 3; Number of revertants per plate, Mean ± SD [14, 19]: 5 ± 3
COC(=O)Cn1c(OC)nc2c1c(=O)n(C)c(=O)n2C [Compound 2, methyl 2-(8-methoxy-1,3-dimethyl-2,6-dioxo-purin-7-yl)acetate]				1.3	36 ± 9	1.2	27 ± 2	1.2	15 ± 2	1.6	53 ± 8	10 ± 3	0.3	0.5	14 ± 5	38%	34 ± 7	moderate or a close to moderate	35 ± 6	68%	biotransformation / detectable metabolites in Cunninghamella model (in words) [15]: did not undergo any biotransformation; also recorded: None of the three Cunninghamella strains evaluated generated detectable metabolites; Number of revertants per plate, Mean ± SD [12]: 45 ± 10; % inhibition of NQNO mutagenicity [12]: 54%; Number of revertants per plate, Mean ± SD [13]: 68 ± 8; % inhibition of NQNO mutagenicity [13]: 12%; % inhibition of NQNO mutagenicity [14, 18]: 92%; % inhibition of NQNO mutagenicity [14, 19]: 91%; Number of revertants per plate, Mean ± SD [14, 18]: 7 ± 2; Number of revertants per plate, Mean ± SD [14, 19]: 9 ± 4
